From US20200325156A1, “HETEROARYL AMIDE COMPOUNDS, PREPARATION METHOD THEREFOR, PHARMACEUTICAL COMPOSITIONS THEREOF, AND APPLICATIONS THEREOF” (Rui Jin Hospital Affiliated to Shanghai Jiao Tong …, priority 2017, published 2020)

Tests used:
Assay type in all cases: cell-based
[1] = system: human embryo lung cell line WI-38; experiment: Growth inhibitory activity, WI-38; details: growth inhibition, normal cells
leukemia cell line SHI-1 = experiment: Growth inhibitory activity, SHI-1; details: growth inhibition; read-out: Leukemia cells IC50 SHI-1
[2] = system: human gastric cancer cells BGC-823; experiment: MTS cell growth inhibition, BGC-823; details: compound concentration 10 μM, 48 h, read-out: Inhibition rate against BGC-823 at 10 μM (%)
Experimental: (§1) 1) Medium: DMEM (Dulbecco's modified eagle medium) or RPMI1640 (containing 10% fetal bovine serum, 100 μg/mL ampicillin, 100 μg/mL streptomycin).
(§2) 2) Reagent: MTS reaction solution (containing 2 mg/mL of MTS (3-(4,5-dimethylthiazol-2-yl)-5-(3-carboxymethoxyphenyl)-2-(4-sulfophenyl)-2H-tetrazolium, inner salt); 100 μg/mL PES ([…])).
(§3) Human promyelocytic leukemia cells HL-60 (2×10^4 cells/well) cultured in vitro were incubated into a 96-well culture plate, the volume of cell-culture medium was 90 μL, and then 10 μL of the compound at each gradient concentration was added (the highest concentration was 10 μM, which was diluted stepwise by ⅓, and 8 concentration points were set in total; the system contained 0.1% DMSO (dimethyl sulfoxide)). The cell plate with uniformly mixed compound was cultured in a cell culture incubator (37° C.; 5% CO2) for 48 h, then 20 μμL of MTS reaction solution was added, uniformly mixed and incubated in the cell culture incubator (37° C.; 5% CO2) for 1-4 hr; OD values at 490 nm were measured by a microplate reader (VARIOSKAN FLASH, Thermo). Three parallels were set in each group of experiments, with 0.1% (a final concentration) DMSO as a negative control, and a medium without cells and compounds as a blank control. The cell growth inhibition rate was calculated by the following formula:
(§4) Cell growth inhibition rate%=1−(ODexperimental group−ODblank group)/(ODnegative group−ODblank group)×100%
(§5) 4) IC50 calculation: The semi-inhibitory concentration of the compound acting on cell was calculated using GradPad Prism 5 software according to the measured cell growth inhibition rate.
(§6) Human lung cancer cells A549, human gastric cancer cells BGC-823, human liver cancer cells HepG-2 and human breast cancer cells MCF-7, human osteosarcoma cells U2OS, human prostate cancer cells LNCAP cultured in vitro were added in a 96-well culture plate at 1,000-10,000 cells/well, incubated until adherence, and then the compound was added. As to other procedures, please refer to the method (1) above.

[3] = system: human embryo lung cell line HFL-1; experiment: Growth inhibitory activity, HFL-1; details: HFL1, growth inhibition, normal cells
[4] = system: human liver cancer cells HepG-2; experiment: MTS cell growth inhibition, HepG-2; details: HepG2, compound concentration 10 μM, 48 h, read-out: Inhibition rate against HepG-2 at 10 μM (%)
Experimental: as §1, §2, §3, §4, §5, §6

[5] = system: Human promyelocytic leukemia cells HL-60; experiment: MTS cell growth inhibition, HL-60; details: Homo sapiens, HL-60; compound concentration 10 μM; 48 h; MTS; read-out: Inhibition rate against HL-60 at 10 μM (%)
Experimental: as §1, §2, §3, §4, §5

[6] = system: lung cancer cell line HCC827; experiment: Growth inhibitory activity, HCC827; details: Homo sapiens, growth inhibition, read-out: Lung cancer cells IC50 HCC827
leukemia cell line NB-4 = experiment: Growth inhibitory activity, NB4; details: growth inhibition; read-out: Leukemia cells IC50 NB4
[7] = system: human prostate cancer cells LNCAP; experiment: MTS cell growth inhibition, LNCAP; details: Homo sapiens, LNCaP; compound concentration 10 μM; 48 h; MTS; read-out: Inhibition rate against LNCAP at 10 μM (%)
Experimental: as §1, §2, §3, §4, §5, §6

[8] = system: normal human embryo lung cells (WI-38 and HFL-1); experiment: Growth of normal human embryo lung cells (summary)
[9] = system: Human lung cancer cells A549; experiment: MTS cell growth inhibition, A549
Experimental: as §1, §2, §3, §4, §5, §6

[10] = system: tumor cells (NCI-1975, HCC827, A549, SHI-1, THP-1, NB-4); experiment: Growth inhibition of tumor cells (summary over cell lines); details: range over lung cancer and leukemia cell lines
Experimental: as §1, §2
as §3, with “Three parallels were set in each group of experiments, with 0.1% (a final concentration) DMSO as a negative control, and a medium without cells and compounds as a blank control.” left out, “formula: […]” for “formula:”
4) IC50 calculation: The semi-inhibitory concentration of the compound acting on cell was calculated using GradPad Prism 5 software according to the measured cell growth inhibition rate. […]

[11] = system: lung cancer cell line NCI-1975; experiment: Growth inhibitory activity, NCI-1975; details: growth inhibition; read-out: Lung cancer cells IC50 NCI-1975
[12] = system: human osteosarcoma cells U2OS; experiment: MTS cell growth inhibition, U2OS; details: Homo sapiens, U2OS; compound concentration 10 μM; 48 h; MTS; read-out: Inhibition rate against U2OS at 10 μM (%)
Experimental: as §1, §2, §3, §4, §5, §6

[13] = system: human breast cancer cells MCF-7; experiment: MTS cell growth inhibition, MCF-7; details: MCF7, compound concentration 10 μM, 48 h, read-out: Inhibition rate against MCF-7 at 10 μM (%)
Experimental: as §1, §2, §3, §4, §5, §6

leukemia cell line THP-1 = experiment: Growth inhibitory activity, THP-1; details: Homo sapiens, growth inhibition, read-out: Leukemia cells IC50 THP-1

IC50 (leukemia cell line SHI-1): 221 nM | IC50 [6]: 8 nM | IC50 (leukemia cell line NB-4): 280 nM | IC50 ([9]; growth inhibition): 30 nM | IC50 (leukemia cell line THP-1): 2460 nM
SMILES: CC(C)Oc1ccc(NC(=O)c2cc3scnc3[nH]2)cc1 [Compound I-2]
IC50 [1]: 5620 nM | inhibition at 10 µM [2]: 61.7% | IC50 [3]: 8590 nM | inhibition at 10 µM [4]: 60.1% | inhibition at 10 µM [5]: < 0% | inhibition at 10 µM [7]: 22.2% | IC50 [8]: > 5000 nM | inhibition at 10 µM ([9]; compound concentration 10 μM, 48 h, MTS, read-out: Inhibition rate against A549 at 10 μM (%)): 81.9% | IC50 [10]: 8 to 280 nM | IC50 [11]: 57 nM | inhibition at 10 µM [12]: 19.4% | inhibition at 10 µM [13]: 23.1%
